Measured values from patent publication US20260355142A1, “AMORPHOUS OTE[…] COMPOSITIONS AND USES THEREOF AND DOSAGE REGIMENS FOR OTENAPROXESUL” (ANTIBE THERAPEUTICS INC., priority 2022, published 2026).
“Also recorded” adds a separate entry of the source. Blank lines part the entries; values can stand above or below the compound they belong to.

What was measured:
liver transaminases = assay: 28-day PK/PD and AME clinical study in healthy older adults, liver transaminase elevations; assay type: in vivo, human; settings: 100 mg cohort, full drug administration period
Procedure: The study was designed in part on the observation that across the otenaproxesul treatment groups, treatment-related >3×ULN (“upper limit of normal”) ALT and/or AST transaminase levels were noted (almost exclusively after the 14-day dosing interval) in 9.8% (6/61) of patients in the 150 mg arm, 7.2% (9/125) of patients in the 200 mg arm and 12.9% (17/132) patients in the 250 mg arm, with this issue being substantially biased towards females),
In this clinical trial, 28-day human safety/PK data was generated to complement the 14-day DRF data from Example 2. Biomarker data/dose (e.g., thromboxane B2) were also generated using standard ELISA assay kits.
Otenaproxesul was supplied as 75 mg, 100 mg and 125 mg, brown, film-coated tablets and was in crystalline form. Patients were instructed to take 1 tablet of otenaproxesul in the morning after an overnight fast. Food intake was restricted until at least 30 minutes after the morning dose.
The study enrolled a total of 42 subjects on either a 75 mg or 100 mg dose per day of otenaproxesul, of whom 35 had completed the 28-day drug administration period, with seven subjects having been administered the drug for 21 days before the study was paused. […]

ALT and AST = assay: Analysis of liver transaminase elevations over the clinical studies; assay type: in vivo, human
Procedure: These LTEs were detected after the patients had completed their full treatment course.
When liver safety findings are observed, cumulative naproxen metabolite plasma drug exposure over the prescribed treatment period exceeded 4000 μg*hr/mL.

[1] = Pharmacokinetics in Beagle dogs of five formulations (Example 15); assay type: in vivo; settings: Day 1, 1- and 12-hour time points
Procedure: (§1) The pharmacokinetics of five different formulations of otenaproxesul (formerly ATB-346) were evaluated in Beagle dogs. Five groups of dogs (n=3/group) were orally administered their assigned formulations once daily for four days. Blood samples were taken for a full 24-hour PK profile on Day 1 and on Day 4.
(§2) Group 1 was administered crystalline otenaproxesul, Group 2 was administered milled crystalline otenaproxesul, Group 3 was administered micro-milled crystalline otenaproxesul, Group 4 was administered exemplary ASD no. 1 (see Example 7A above) and Group 5 was administered exemplary ASD no. 4 (see Example 7A above). Dose administered was 15 mg/kg (human equivalent dose of 525 mg).
Crystalline otenaproxesul was administered to dog Groups 1-3 in gelatin capsules by oral gavage. Exemplary ASD no. 1 and exemplary ASD no. 4 were administered as oral suspensions to dog Groups 4-5.

TXB2 = assay: Pharmacodynamics in Beagle dogs, plasma TXB2; assay type: in vivo; settings: 15 mg/kg, Day 1 and Day 4 pre-treatment
Procedure: as §1, §2
(§3) Pharmacodynamic assessment of TXB2 and PGE2 plasma concentrations were assessed on: • Day 1, one hour post treatment • Day 1, 12 hours post treatment • Day 4, pre-treatment • Day 4, one hour post treatment • Day 4, 12 hours post treatment.

PGE2 = assay: Pharmacodynamics in Beagle dogs, plasma PGE2; assay type: in vivo; settings: 15 mg/kg
Procedure: as §1, §2, §3

[2] = H2S release / formulation stability in simulated intestinal fluid; settings: SIF, 1 mg/ml, 37° C., 5% CO2
Procedure: Assay design: 1 mg of exemplary ASD no. 1 and crystalline otenaproxesul were weighed in separate glass vials. SIF was added to prepare a 1 mg/ml solution which was incubated at 37° C. with 5% CO2. 120 μl was removed at 0.5, 1, 2, 3, 4 and 8 hrs and quenched in DPD (N,N-dimethyl-p-phenylenediamine sulfate) and FeCl3 solutions. A calibration curve was prepared to quantify amount of H2S released. A blank and 10 mM stock was also analyzed. The methylene blue was analyzed using HPLC.

[3] = Rat pharmacokinetics of otenaproxesul amorphous dispersion (Example 19); assay type: in vivo, Rats; settings: HED 260 mg once daily
Procedure: Rats were administered five treatment doses of the otenaproxesul amorphous solid dispersion (i.e., exemplary ASD no. 1 (35% drug: 65% polymer by weight)) and a crystalline otenaproxesul control dose. […] One group of rats was administered a human equivalent dose of 208 mg twice daily (416 mg total daily dose). Crystalline otenaproxesul was administered at the no observed adverse effect level (NOAEL) dose equivalent to a human dose of 260 mg once daily.
Pharmacokinetic data was evaluated on M25 plasma naproxen concentrations at 60 minutes post administration, Day 1 M25 plasma exposure (AUC0-24) and Day 4 M25 plasma exposure (AUC0-Last). Assessment of dose proportional characteristics for both M25 plasma concentration and AUC exposure were measured.
The human equivalent dose (HED) is related to the administered rat dose by an allometric scaling formula, for example: HED (mg)=([rat dose in mg/kg×0.16]×65 kg).

[4] = Dog pharmacokinetics of otenaproxesul amorphous dispersion (Example 20); assay type: in vivo, male Beagle dogs
Procedure: Summary: Over a 4-day treatment period dogs were administered four treatment doses of the otenaproxesul amorphous solid dispersion formulation (exemplary ASD no. 1) and a crystalline otenaproxesul control dose. Treatments corresponding to human equivalent doses of 70.2 mg, 140.4 mg, 280.8 mg and 561.6 mg otenaproxesul were administered once daily to male (n=4) dogs. Crystalline otenaproxesul was administered at the NOAEL dose equivalent to a human dose of 526.5 mg otenaproxesul once daily.
Pharmacokinetic data were evaluated on M25 plasma naproxen concentrations at 60 minutes post administration (C60), Day 1 M25 plasma exposure (AUC0-24) and Day 4 M25 plasma exposure (AUC0-Last). Assessment of dose proportional characteristics for M25 plasma concentration at 60 minutes post administration (C60) and at maximal concentration (Cmax) and AUC exposure were measured on Day 1 and Day 4 of treatment.

subjects with liver transaminase elevations exceeding five times the upper limit of normal (liver transaminases): Three
Structure (SMILES): COc1ccc2cc([C@H](C)C(=O)Oc3ccc(C(N)=S)cc3)ccc2c1 [otenaproxesul, (S)-4-carbamothioylphenyl 2-(6-methoxynaphthalen-2-yl) propanoate]
adverse liver effects (transient elevations of liver transaminases) (ALT and AST; multiple dose 150, 200 or 250 mg for seven days): no observed adverse liver effects
liver transaminase elevations (ALT and AST; multiple dose 150, 200 or 250 mg, 14 days or less): not detected
cumulative plasma naproxen exposure at which LTEs are not observed (ALT and AST; over the prescribed treatment): ≤ 4000 µg·h/mL
cumulative naproxen plasma exposure when liver safety findings are observed (ALT and AST; over the prescribed treatment period): exceeded 4000 μg*hr/mL
patients with dose-related liver transaminase elevation (ALT and AST; phase 2 study): approximately 10%
liver transaminase elevations (ALT and AST; single dose 25 mg to 2000 mg (crystalline)): not detected; also recorded: no observed adverse liver effects

lower M25 plasma concentration than the exemplary ASDs [1]: 10 ×
H2S release ([2]; 0.5 hrs): 0.7 µM
H2S release ([2]; 1 hr): 0.7 µM
H2S release ([2]; 2 hrs): 1.2 µM
H2S release ([2]; 3 hrs): 2.2 µM
H2S release ([2]; 4 hrs): 3.7 µM
H2S release ([2]; 8 hrs): 8.5 µM
AUC increase between Day 1 and Day 4 ([3]; female rats): 60%
AUC increase between Day 1 and Day 4 ([3]; male rats): 30%
M25 plasma concentration at 1 hour, Day 4, compared ([4]; crystalline HED 527 mg vs amorphous HED 562 mg): comparable M25 plasma concentrations
Cmax Day 4/Day 1 ratio ([4]; dogs, HED 526.5 mg): 1.4
steady state pharmacokinetics of M25 compared ([4]; dogs, crystalline 526.5 mg vs amorphous 561.6 mg HED): virtually identical
Structure (SMILES): COc1ccc2cc([C@H](C)C(=O)Oc3ccc(C(N)=S)cc3)ccc2c1 [crystalline otenaproxesul]
inhibition of TXB2 relative to ASDs (TXB2): inhibition of TXB2 was lower
PGE2 inhibition (PGE2; Day 1 12-hour): not maintained
PGE2 inhibition (PGE2; Day 4 pre-treatment): recovered to a large extent
